Test results from patent US20150218212A1, “FLUORINATED EPOXYKETONE-BASED TETRAPEPTIDE COMPOUNDS AND USES THEREOF AS PROTEASOME INHIBITORS” (FLUORINOV PHARMA INC., priority 2012, published 2015).
Like-named read-outs stand apart in the source and are kept apart here.

Assays:
Type in all cases: in vivo, NOD/SCID mice
[1] = biological target: T1, proteasome Chymotrypsin-like (CT-L) activity (Mus musculus, UniProt O09061+O55234); experiment: Pharmacodynamic proteasome activity in murine red blood cells, CT-L; conditions: iv, mice, 2 mg/kg i.v.
T1 construct: RBCs were lysed with assay lysis buffer and incubated on ice for 30 minutes; from tissue; host or cells: red blood cells of NOD/SCID mice
Protocol: (§1) Cells were harvested by centrifugation at 1,200 rpm at room temperature. Cell pellets were washed with PBS (phosphate buffered saline) and lysed with assay lysis buffer (50 mM HEPES (N-2-hydroxyethylpiperazine-N′-2-ethanesulfonic acid), pH 7.5; 150 mM NaCl; 1% Triton X-100; 2 mM ATP). Cell lysates were incubated on ice for 30 minutes, mixed by vortex every 5 minutes, and then centrifuged at 12,000 g for 10 minutes. The supernatant was transferred to a 96-well plate. For each assay, 10 μg of total protein were incubated for 1 hour at 37° C. with increasing concentrations (1 nM to 10 μM) of test compound diluted in assay buffer (50 mM tris-HCl (tris(hydroxymethyl)aminomethane-HCl), pH 7.5; 150 mM NaCl). DMSO alone was used as a control in every assay plate. After incubation, a specific fluorogenic proteasome substrate was added to each assay reaction at a final concentration of 40 μM in a total volume of 100 μL. N-Succinyl-Leu-Leu-Val-Tyr-7-amino-4-methylcoumarin (Suc-Leu-Leu-Val-Tyr-AMC) was used for measuring chymotrypsin-like (CT-L) activity, t-butoxycarbonyl-Leu-Arg-Arg-7-amino-4-methylcoumarin (Boc-Leu-Arg-Arg-AMC) for trypsin-like (T-L) activity, and benzyloxycarbonyl-L-leucyl-L-leucyl-L-glutamyl-7-amino-4-methylcoumarin (Z-Leu-Leu-Glu-AMC) for caspase-like (C-L) activity. The excitation wavelength was set at 360 nm and the fluorescence emission wavelength of AMC was detected at 460 nm. The fluorescence of free AMC released during the enzymatic reaction was measured with a SpectraMax M5 fluorescent spectrophotometric plate reader (Molecular Devices, Sunnyvale, Calif.). AMC release rate was measured at 37° C. in a kinetic mode, recording every 5 minutes for 30 minutes. Experiments were performed in triplicate and repeated at least twice.
(§2) All mouse experiments were performed in accordance with approval from the Ontario Cancer Institute institutional animal review board. Five- to six-week-old male non-obese diabetic/severe combined immunodeficient (NOD/SCID) mice were grouped randomly (n=3 mice per group). Mice were administered vehicle (5% DMSO, 20% Cremophor) or compounds of Formula I at different doses either intravenously or by oral gavage, and venous blood samples (20-50 μL) were collected from each mouse over 24 hours. Blood samples were mixed with heparin (APP Pharmaceuticals; Schaumburg, Ill.) in 0.5 mL tubes in accordance with the manufacturer's instructions. After centrifugal separation at 3,000 g for 10 minutes, red blood cells (RBCs) in the bottom layer were transferred into a new tube and stored at −70° C. until use. RBCs were lysed with assay lysis buffer and incubated on ice for 30 minutes, mixing by vortex every 5 minutes, and then centrifuged at 12,000 g for 10 minutes. The supernatant was transferred to a 96-well plate and proteasome activity was measured as described above for tumor cell lysates.
(§3) Proteasome subunit activity (Chymotrypsin-like, Trypsin-like, Caspase-like, CT-L, T-L, C-L, respectively) were monitored over the course of 24 hrs following […] administration of representative compounds of Formula I. NOD/SCID mice were treated with compounds of Formula I (2 mg/kg by iv administration) or vehicle control and carfilzomib for up to 24 hours, as described above. Table 9 summarizes the data on pharmacodynamic activity of representative compounds of Formula I following a dose of 2 mg/kg intravenous (i.v) administration to mice. Data are presented as mean residual activity (SEM) relative to vehicle treated controls.

[2] = biological target: T2, proteasome Caspase-like (C-L) activity (Mus musculus, UniProt P70195+Q60692); experiment: Pharmacodynamic proteasome activity in murine red blood cells, C-L; conditions: iv, mice, 2 mg/kg i.v., time 0, read-out: Caspase-like (C-L) mean residual activity relative to vehicle treated controls
T2 construct: RBCs were lysed with assay lysis buffer and incubated on ice for 30 minutes; from tissue; host or cells: red blood cells of NOD/SCID mice
Protocol: as §1, §2, §3

[3] = biological target: T3, proteasome Trypsin-like (T-L) activity (Mus musculus, UniProt P70195+Q9R1P1); experiment: Pharmacodynamic proteasome activity in murine red blood cells, T-L; conditions: iv, mice, 2 mg/kg i.v., time 0, read-out: Trypsin-like (T-L) mean residual activity relative to vehicle treated controls
T3 construct: RBCs were lysed with assay lysis buffer and incubated on ice for 30 minutes; from tissue; host or cells: red blood cells of NOD/SCID mice
Protocol: as §1, §2, §3

remaining activity at 2 mg/kg ([1]; 30 min, read-out: Chymotrypsin-like (CT-L) mean residual activity relative to vehicle treated controls): 48% | remaining activity at 2 mg/kg ([1]; 24 hrs, read-out: Chymotrypsin-like (CT-L) mean residual activity relative to vehicle treated controls): 46% | remaining activity at 2 mg/kg ([1]; time 0, read-out: Chymotrypsin-like (CT-L) mean residual activity relative to vehicle treated controls): 100% | remaining activity at 2 mg/kg [2]: 100% | remaining activity at 2 mg/kg [3]: 100%
Structure (SMILES): CC(C)C[C@H](NC(=O)[C@H](CCc1ccccc1)NC(=O)CN1CCOCC1)C(=O)N[C@@H](Cc1ccccc1)C(=O)N[C@@H](CC(C)C)C(=O)[C@@]1(C)CO1 [Carfilzomib, carfilzomib, reference compound]
